Measured values taken from the NIST ThermoML archive (doi:10.1016/j.jct.2014.07.018).

Experiment: molar heat capacity at constant pressure
Details: 101.33 kPa, Vacuum adiabatic calorimetry

CCC[n+]1ccn(C)c1.[Br-] [1-methyl-3-propylimidazolium bromide]
molar heat capacity at constant pressure [J/K/mol]
Details | Crystal 2 | Glass
5 K | 0.294 | 1
5.52 K | 0.401 | –
5.87 K | 0.492 | –
6.21 K | 0.596 | –
6.59 K | 0.729 | –
6.61 K | – | 2.26
6.94 K | – | 2.56
6.97 K | 0.883 | –
7.33 K | – | 2.953
7.35 K | 1.057 | –
7.73 K | 1.253 | –
7.74 K | – | 3.376
8.12 K | 1.472 | –
8.14 K | – | 3.817
8.51 K | 1.709 | –
8.55 K | – | 4.303
8.89 K | 1.969 | –
8.96 K | – | 4.799
9.28 K | 2.25 | –
9.37 K | – | 5.312
9.68 K | 2.56 | –
9.78 K | – | 5.854
10 K | 2.83 | 6.16
10.07 K | 2.896 | –
10.19 K | – | 6.42
10.57 K | 3.349 | –
10.71 K | – | 7.156
11.17 K | 3.934 | –
11.34 K | – | 8.069
11.78 K | 4.563 | –
11.96 K | – | 9.014
12.39 K | 5.251 | –
12.59 K | – | 10.01
12.76 K | – | 10.27
13 K | 5.972 | –
13.23 K | – | 11.02
13.27 K | – | 11.09
13.62 K | 6.746 | –
13.86 K | – | 12.06
13.9 K | – | 12.12
14.24 K | 7.548 | –
14.5 K | – | 13.11
14.53 K | – | 13.18
14.85 K | 8.382 | –
15 K | 8.58 | 13.96
15.17 K | – | 14.27
15.58 K | 9.404 | –
15.96 K | – | 15.61
16.42 K | 10.63 | –
16.9 K | – | 17.24
17.26 K | 11.9 | –
17.83 K | – | 18.9
18.09 K | 13.21 | –
18.77 K | – | 20.57
18.93 K | 14.56 | –
19.7 K | – | 22.25
19.77 K | 15.94 | –
20 K | 16.31 | 22.8
20.91 K | 17.83 | –
20.95 K | – | 24.53
22.33 K | 20.27 | –
22.51 K | – | 27.36
23.77 K | 22.77 | –
24.09 K | – | 30.19
25 K | 24.9 | 31.8
25.2 K | 25.25 | –
25.66 K | – | 32.96
26.63 K | 27.75 | –
27.23 K | – | 35.71
28.07 K | 30.25 | –
28.81 K | – | 38.42
29.52 K | 32.71 | –
30 K | 33.56 | 40.46
30.4 K | – | 41.1
31.17 K | 35.56 | –
32.13 K | – | 43.97
33.03 K | 38.66 | –
34.01 K | – | 46.95
34.89 K | 41.68 | –
35 K | 41.84 | 48.45
35.9 K | – | 49.88
36.76 K | 44.57 | –
37.79 K | – | 52.63
38.63 K | 47.38 | –
39.67 K | – | 55.27
40 K | 49.44 | 55.78
40.49 K | 50.15 | –
41.76 K | – | 58.17
42.5 K | 53 | –
44.05 K | – | 61.22
44.67 K | 55.99 | –
45 K | 56.45 | 62.48
46.42 K | – | 64.28
46.85 K | 58.9 | –
48.69 K | – | 67.11
49.03 K | 61.73 | –
50 K | 62.88 | 68.62
50.77 K | – | 69.55
51.21 K | 64.4 | –
52.86 K | – | 71.87
53.39 K | 66.92 | –
54.95 K | – | 74.14
55.57 K | 69.38 | –
57.04 K | – | 76.42
57.75 K | 71.78 | –
59.13 K | – | 78.63
59.93 K | 74.14 | –
60 K | 74.22 | 79.52
61.23 K | – | 80.83
62.13 K | 76.42 | –
63.32 K | – | 82.92
64.33 K | 78.63 | –
65.42 K | – | 84.99
66.53 K | 80.71 | –
67.53 K | – | 86.98
68.72 K | 82.68 | –
69.62 K | – | 88.87
70 K | 83.84 | 89.28
70.92 K | 84.56 | –
